Patent US20080312192A1, “Diaryl Urea Derivatives in the Treatment of Protein Kinase Dependent Diseases” (priority 2003, published 2008)

What follows are molecules tested against T1, RET (Homo sapiens, UniProt P07949) (assay: RET kinase inhibition (33P incorporation into poly(Glu,Tyr), GST-wtRET or GST-RET-Men2B)).
T1 construct: expresses the amino acid region 658-1072 (Swiss prot No. Q9BTB0); made in house; host or cells: Sf9 insect cells (baculovirus, vector pFB-GSTX3)
T1 sequence (P07949 658-1072 isoform P07949-2): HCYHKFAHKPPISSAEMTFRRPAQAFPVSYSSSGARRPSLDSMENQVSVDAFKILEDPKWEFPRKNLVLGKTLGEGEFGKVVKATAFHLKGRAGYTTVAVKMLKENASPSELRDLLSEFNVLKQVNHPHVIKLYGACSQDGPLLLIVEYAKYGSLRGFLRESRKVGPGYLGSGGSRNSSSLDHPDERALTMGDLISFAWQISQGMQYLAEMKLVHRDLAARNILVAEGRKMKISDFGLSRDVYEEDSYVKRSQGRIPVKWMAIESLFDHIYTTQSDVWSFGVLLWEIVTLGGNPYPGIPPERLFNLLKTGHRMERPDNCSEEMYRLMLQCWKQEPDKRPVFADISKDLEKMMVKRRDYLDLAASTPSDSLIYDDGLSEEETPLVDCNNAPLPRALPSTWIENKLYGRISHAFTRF
Format: biochemical
Experimental: RET kinase inhibition is determined as follows:
The coding sequence for the cytoplasmic domain of wtRET is amplified by PCR from a cDNA library using specific primers. RET-Men2B is generated through site-directed mutagenesis resulting in the M918T mutation. The amplified DNA fragments and the pFB-GSTX3 vector are made compatible for ligation by digestion with SalI and KpnI. Ligation of these DNA fragments results in the baculovirus donor plasmids […] and pFB-GX3-RET-Men2B, respectively.
Production of virus: The baculovirus donor plasmids containing the kinase domains are transfected into the DH10Bac cell line (GIBCO) and the transfected cells are plated on selective agar plates. Colonies without insertion of the fusion sequence into the viral genome (carried by the bacteria) are blue. Single, white colonies are picked and viral DNA (bacmid) is isolated from the bacteria by standard plasmid purification procedures. Sf9 cells or Sf21 cells (American Type Culture Collection) are then transfected in 25 cm^2 flasks with the viral DNA using Cellfectin reagent.
Protein expression in Sf9 cells: Virus-containing media is collected from the transfected cell culture and used for infection to increase its titer. Virus-containing media obtained after two rounds of infection is used for large-scale protein expression. For large-scale protein expression 100 cm^2 round tissue culture plates are seeded with 5×10^7 cells/plate and infected with 1 mL of virus-containing media (approximately 5 MOIs). After 3 days, the cells are scraped off the plate and centrifuged at 500 rpm for 5 minutes. Cell pellets from 10-20, 100 cm^2 plates are re-suspended in 50 mL of ice-cold lysis buffer (25 mM Tris-HCl, pH 7.5, 2 mM EDTA, 1% NP-40, 1 mM DTT, 1 mM PMSF). The cells are stirred on ice for 15 minutes and then centrifuged at 5,000 rpms for 20 minutes.
Purification of GST-tagged proteins: The centrifuged cell lysate is loaded onto a 2 mL glutathione-sepharose column (Pharmacia) and washed 3× with 10 mL of 25 mM Tris-HCl, pH 7.5, 2 mM EDTA, 1 mM DTT, 200 mM NaCl. The GST-tagged proteins are then eluted by 10 applications (1 mL each) of 25 mM Tris-HCl, pH 7.5, 10 mM reduced-glutathione, 100 mM NaCl, 1 mM DTT, 10% glycerol and stored at −70° C.
Measure of enzyme activity: Tyrosine protein kinase assays with either purified GST-wtRET or GST-RET-Men2B protein are carried out in a final volume of 30 μL containing 15 ng of either GST-RET or GST-RET-Men2B protein, 20 mM Tris-HCl, pH 7.5, 1 mM MnCl2, 10 mM MgCl2, 1 mM DTT, 3 μg/mL poly(Glu, Tyr) 4:1, 1% DMSO, 2.0 μM ATP (γ-[^33P]-ATP 0.1 μCi). The activity is assayed in the presence or absence of inhibitors, by measuring the incorporation of ^33P from [γ^33P] ATP into poly(Glu, Tyr) 4:1. […] Subsequently, 40 μL of the reaction mixture are transferred onto Immobilon-PVDF membrane (Millipore) previously soaked for 5 minutes with methanol, rinsed with water, then soaked for 5 minutes with 0.5% H3PO4 and mounted on vacuum manifold with disconnected vacuum source. After spotting all samples, vacuum is connected and each well rinsed with 200 μL 0.5% H3PO4. Membranes are removed and washed 4× on a shaker with 1.0% H3PO4, once with ethanol. Membranes are counted after drying at ambient temperature, mounting in Packard TopCount 96-well frame, and addition of 10 μl/well of Microscint™ (Packard). […] One unit of protein kinase activity is defined as 1 nmole of ^33P transferred from [γ^33P] ATP to the substrate protein/minute/mg of protein at 37° C.

Q: Which IC50 does the source give for `Nc1cc(Oc2ccc(NC(=O)Nc3cc(CN4CCC4)cc(C(F)(F)F)c3)cc2)ncn1` [Example 4, N-[4-(6-Amino-pyrimidin-4-yloxy)-phenyl]-N′-(3-azetidin-1-ylmethyl-5-trifluoromethyl-phenyl)-urea] here?
A: The IC50 was 83 nM.

Q: With `CNc1nccc(Oc2ccc(NC(=O)Nc3ccc(N4CCN(C)CC4)c(C(F)(F)F)c3)cc2)n1` [Example 53d, 1-[4-(2-Methylamino-pyrimidin-4-yloxy)-phenyl]-3-[4-(4-methyl-piperazin-1-yl)-3-trifluoromethyl-phenyl]-urea] as the molecule, how does the IC50 read?
A: The IC50 was 450 nM.

Q: `CCN1CCN(Cc2ccc(NC(=O)Nc3ccc(Oc4ccnc(N)n4)cc3)cc2C(F)(F)F)CC1` [Example 52c, 1-[4-(2-Amino-pyrimidin-4-yloxy)-phenyl]-3-[4-(4-ethyl-piperazin-1-ylmethyl)-3-trifluoromethyl-phenyl]-urea] was tested. Which IC50 did it give?
A: The IC50 was 310 nM.

Q: With `CC(C)(C)N1CCN(Cc2ccc(NC(=O)Nc3ccc(Oc4ccnc(N)n4)cc3)cc2C(F)(F)F)CC1` [Example 50] as the molecule, how does the IC50 read?
A: Its IC50 is 560 nM.

Q: How did the IC50 turn out when `CN1CCN(Cc2ccc(NC(=O)Nc3ccc(Oc4ccnc(N)n4)cc3)cc2C(F)(F)F)CC1` [Example 52a, 1-[4-(2-amino-pyrimidin-4-yloxy)-phenyl]-3-[4-(4-methylpiperazin-1-ylmethyl)-3-trifluoromethyl-phenyl]-urea] was run?
A: Its IC50 is 180 nM.

Q: For `Cc1ncn(Cc2ccc(NC(=O)Nc3ccc(Oc4ccnc(N)n4)cc3)cc2C(F)(F)F)c1C` [Example 51a.1, 1-[4-(2-Amino-pyrimidin-4-yloxy)-phenyl]-3-(4-(4,5-dimethyl-imidazol-1-ylmethyl)-3-trifluoromethyl-phenyl]-urea], which IC50 is on record?
A: Its IC50 is 850 nM.

Q: Which IC50 does the source give for `CNc1nccc(Oc2ccc(NC(=O)Nc3cc(N4CCN(C)CC4)cc(C(F)(F)F)c3)cc2)n1` [Example 53b, 1-[4-(2-Methylamino-pyrimidin-4-yloxy)-phenyl]-3-[3-(4-methyl-piperazin-1-yl)-5-trifluoromethyl-phenyl]-urea] here?
A: The IC50 was 450 nM.

Q: `CC(C)N1CCN(Cc2ccc(NC(=O)Nc3ccc(Oc4cc(N)ncn4)cc3)cc2C(F)(F)F)CC1` [Example 19, N-[4-(6-Amino-pyrimidin-4-yloxy)-phenyl]-N′-[4-(4-isopropylpiperazin-1-ylmethyl)-3-trifluoromethyl-phenyl]-urea] was tested. Which IC50 did it give?
A: Its IC50 is 550 nM.

Q: Which IC50 does the source give for `CNc1cc(Oc2ccc(NC(=O)Nc3cc(CN4CCN(C(C)C)CC4)cc(C(F)(F)F)c3)cc2)ncn1` [Example 6, N-[4-(6-Methylamino-pyrimidin-4-yloxy)-phenyl]-N′-[3-(4-isopropylpiperazin-1-ylmethyl)-5-trifluoromethyl-phenyl]-urea] here?
A: The IC50 was 960 nM.
